According to PMC10940605, “Design, synthesis and in vitro anticancer activity of some new lomefloxacin derivatives” (Scientific Reports, 2024):

Assays:
CAKI-1 = assay: NCI-60 SRB screen; type: cell-based; conditions: Homo sapiens; CAKI-1, 10^–5 Molar; read-out: Percent growth inhibition
Experimental: (§1) All newly synthesized compounds were selected and screened for anticancer activity against 60 human cancer cell lines representing 9 types of tumors including leukemia, melanoma, lung, colon, CNS, ovarian, renal, prostate, and breast cancers at the National Cancer Institute (NCI), Bethesda, USA. Screening was performed utilizing a single dose (10^−5 M concentration) and cells were incubated for 48 h. The end point was determined using sulforhodamine B (SRB) dye.
(§2) In this study, all the 16 newly synthesized compounds were submitted to the National Cancer Institute (USA) for anticancer evaluation and were selected and evaluated using 60 different human tumor cell lines representing lung, colon, CNS, ovarian, renal, prostate, breast cancers as well as leukemia and melanoma. A single dose (10^–5 Molar) was used for the initial screening for evaluation of anticancer activity. The 60 human cancer cell lines were provided by the national cancer institute biomedical research campus in Frederick, Maryland.
(§3) 60 different human cancer cell lines were utilized to screen the newly synthesized compounds for anticancer activity according to the previously reported standard procedure[24]–[26] as follows: • 96 well microtiter plates were used to inoculate the cells at […] ranging from 4000–5000 cells/well depending on the replication time of individual cell lines. Roswell Park Memorial Institute culture medium (RPMI 1640 medium) containing 2 mM L-glutamine and fetal bovine serum was used to grow the cells at 37 °C, 5% CO2, 95% air and 100% relative humidity for 24 h. • Fixation of cells in two plates of each cell line in situ was done using trichloroacetic acid (TCA). This represented the measurement of cell population at the time of drug addition (Tz). • Dimethyl sulfoxide (DMSO) was used to dissolve the synthesized compounds at 400-fold the desired final maximum concentration and frozen prior to use. This frozen concentrate was melted and diluted to twice the final concentration with complete medium containing 50 µg/mL gentamycin at time of drug addition. • The final compound concentration was obtained by adding 100 µL of the synthesized compounds to the appropriate microtiter wells already containing 100 µL followed by incubation of the plates at 37 °C, 5% CO2, 95% air and 100% relative humidity for 48 h. • Fixation of the cells was achieved by gentle addition of 50 µL of cold 50% (w/v) TCA followed by incubation for 60 min at 4 °C. The supernatant was then discarded and the plates are washed 5 times with tap water and air dried. • Sulphorhodamine B (SRB) solution (100 µL) at 0.4% (w/v) in 1% acetic acid was added to each plate followed by incubation for 10 min at room temperature. The unbound dye was then removed by washing five times with 1% acetic acid and plates were air dried. • Dissolution of the bound stain was done using […] trizma base and the absorbance was read at […] wavelength using an automated plate reader. • The percentage growth inhibition was calculated as follows: Ti-Tz/C-Tz×100forconcentrationswhichTi≥Tz Ti-Tz/Tz×100forconcentrationswhichTi<Tz • Time zero (Tz) • Control growth (C) • Test growth in the presence of drug (Ti)

HCT-15 = assay: NCI-60 SRB screen; type: cell-based; conditions: Homo sapiens; HCT-15, 10^–5 Molar; read-out: Percent growth inhibition
Experimental: as §1, §2, §3

HS 578T = assay: NCI-60 SRB screen; type: cell-based; conditions: Homo sapiens, 10^–5 Molar, read-out: Percent growth inhibition
Experimental: as §1, §2, §3

K-562 = assay: NCI-60 SRB screen; type: cell-based; conditions: Homo sapiens, K562; K-562, 10^–5 Molar; read-out: Percent growth inhibition
Experimental: as §1, §2, §3

MCF7 = assay: NCI-60 SRB screen; type: cell-based; conditions: Homo sapiens; MCF7, 10^–5 Molar; read-out: Percent growth inhibition
Experimental: as §1, §2, §3

SF-268 = assay: NCI-60 SRB screen; type: cell-based; conditions: Homo sapiens; SF-268, 10^–5 Molar; read-out: Percent growth inhibition
Experimental: as §1, §2, §3

SN12C = assay: NCI-60 SRB screen; type: cell-based; conditions: Homo sapiens, 10^–5 Molar, read-out: Percent growth inhibition
Experimental: as §1, §2, §3

SNB-75 = assay: NCI-60 SRB screen; type: cell-based; conditions: Homo sapiens; SNB-75, 10^–5 Molar; read-out: Percent growth inhibition
Experimental: as §1, §2, §3

UACC-62 = assay: NCI-60 SRB screen; type: cell-based; conditions: Homo sapiens; UACC-62, 10^–5 Molar; read-out: Percent growth inhibition
Experimental: as §1, §2, §3

UO-31 = assay: NCI-60 SRB screen; type: cell-based; conditions: Homo sapiens; UO-31, 10^–5 Molar; read-out: Percent growth inhibition
Experimental: as §1, §2, §3

[1] = test system: 60 human cancer cell lines; assay: NCI-60 SRB screen, whole panel; type: cell-based; conditions: Homo sapiens, 48 h; One Dose Mean Graph, Conc 1.00E-5 Molar; read-out: Mean Growth Percent
IGROV1 = assay: NCI-60 SRB screen; type: cell-based; conditions: Homo sapiens, IGROV-1; IGROV1, 10^–5 Molar; read-out: Percent growth inhibition
Experimental: as §1, §2, §3

LOX IMVI = assay: NCI-60 SRB screen; type: cell-based; conditions: Homo sapiens, 10^–5 Molar, read-out: Percent growth inhibition
Experimental: as §1, §2, §3

MDA-MB-468 = assay: NCI-60 SRB screen; type: cell-based; conditions: Homo sapiens; MDA-MB-468, 10^–5 Molar; read-out: Percent growth inhibition
Experimental: as §1, §2, §3

NCI-H226 = assay: NCI-60 SRB screen; type: cell-based; conditions: Homo sapiens; NCI-H226, 10^–5 Molar; read-out: Percent growth inhibition
Experimental: as §1, §2, §3

OVCAR-5 = assay: NCI-60 SRB screen; type: cell-based; conditions: Homo sapiens; OVCAR-5, 10^–5 Molar; read-out: Percent growth inhibition
Experimental: as §1, §2, §3

PC-3 = assay: NCI-60 SRB screen; type: cell-based; conditions: Homo sapiens; PC-3, 10^–5 Molar; read-out: Percent growth inhibition
Experimental: as §1, §2, §3

RXF 393 = assay: NCI-60 SRB screen; type: cell-based; conditions: Homo sapiens, 48 h; RXF 393, 10^–5 Molar; read-out: Percent growth inhibition
Experimental: as §1, §2, §3

SF-539 = assay: NCI-60 SRB screen; type: cell-based; conditions: Homo sapiens; SF-539, 10^–5 Molar; read-out: Percent growth inhibition
Experimental: as §1, §2, §3

SNB-19 = assay: NCI-60 SRB screen; type: cell-based; conditions: Homo sapiens; SNB-19, 10^–5 Molar; read-out: Percent growth inhibition
Experimental: as §1, §2, §3

SW-620 = assay: NCI-60 SRB screen; type: cell-based; conditions: Homo sapiens; SW-620, 10^–5 Molar; read-out: Percent growth inhibition
Experimental: as §1, §2, §3

T-47D = assay: NCI-60 SRB screen; type: cell-based; conditions: Homo sapiens, T47D, 10^–5 Molar, read-out: Percent growth inhibition
Experimental: as §1, §2, §3

melanoma SK-MEL-5 = assay: NCI-60 SRB screen; type: cell-based; conditions: Homo sapiens; SK-MEL-5, 10^–5 Molar; read-out: Percent growth inhibition
Experimental: as §1, §2, §3

## CCn1cc(C(=O)O)c(=O)c2cc(F)c(N3CCN(CC(=O)Nc4ccc(S(=O)(=O)Nc5ncccn5)cc4)C(C)C3)c(F)c21 (stereo not shown) [Compound 5e, 1-Ethyl-6,8-difluoro-7-(3-methyl-4-(2-oxo-2-((4-(N-(pyrimidin-2-yl)sulfamoyl)phenyl)amino)ethyl)piperazin-1-yl)-4-oxo-1,4-dihydroquinoline-3-carboxylic acid]
CAKI-1
  inhibition at 10 µM: 7.59%
HCT-15
  inhibition at 10 µM: 2.43%
HS 578T
  inhibition at 10 µM: 2.04%
K-562
  inhibition at 10 µM: 1.07%
MCF7
  inhibition at 10 µM: 5.24%
SF-268
  inhibition at 10 µM: 1.55%
SN12C
  inhibition at 10 µM: 3.07%
SNB-75
  inhibition at 10 µM: 6.39%
UACC-62
  inhibition at 10 µM: 7.88%
UO-31
  inhibition at 10 µM: 9.64%
[1]
  activity at 10 µM: 106%
other
  melting point: 282 to 284 °C

## CCn1cc(C(=O)O)c(=O)c2cc(F)c(N3CCN(CC(=O)Nc4ccc(S(=O)(=O)Nc5nccc(C)n5)cc4)C(C)C3)c(F)c21 (stereo not shown) [Compound 5f, 1-Ethyl-6,8-difluoro-7-(3-methyl-4-(2-((4-(N-(4-methylpyrimidin-2-yl)sulfamoyl)phenyl)amino)-2-oxoethyl)piperazin-1-yl)-4-oxo-1,4-dihydroquinoline-3-carboxylic acid]
CAKI-1
  inhibition at 10 µM: 11.4%
HS 578T
  inhibition at 10 µM: 0.4%
IGROV1
  inhibition at 10 µM: 0.3%
LOX IMVI
  inhibition at 10 µM: 4.41%
MCF7
  inhibition at 10 µM: 3.33%
MDA-MB-468
  inhibition at 10 µM: 3.63%
NCI-H226
  inhibition at 10 µM: 2.92%
OVCAR-5
  inhibition at 10 µM: 1.48%
PC-3
  inhibition at 10 µM: 2.04%
RXF 393
  inhibition at 10 µM: 0.98%
SF-268
  inhibition at 10 µM: 1.74%
SF-539
  inhibition at 10 µM: 0.79%
SN12C
  inhibition at 10 µM: 1.96%
SNB-19
  inhibition at 10 µM: 1.26%
SNB-75
  inhibition at 10 µM: 4.26%
SW-620
  inhibition at 10 µM: 3.4%
T-47D
  inhibition at 10 µM: 1.12%
UACC-62
  inhibition at 10 µM: 5.79%
UO-31
  inhibition at 10 µM: 16.7%
Melanoma SK-MEL-5
  inhibition at 10 µM: 193%
[1]
  activity at 10 µM: 102%
other
  melting point: 247 to 249 °C
